How the values were obtained:
[1] = test system: 3NP-lesioned C57BL/6 mice; experiment: 3-nitropropionic acid (3NP) model of Huntington's disease; format: in vivo; conditions: for COX-2 (2expΔΔct) / IL-6 (2expΔΔct) / TNF-α (2expΔΔct): striatum mRNA, mean ± SEM n=6; for COX-2 (2expΔΔct) / IL-6 (2expΔΔct) / TNF-α (2expΔΔct) / % GSH / % SOD activity / %Catalase activity: substance alone; for % GSH / % SOD activity / %Catalase activity: striatum, % of vehicle-treated control
Method: Figure 7 VCE-003.2 is neuroprotective in 3NP-intoxicated mice. (a) Behavioural score was determined 12 hours after 3NP intoxication. Mice were treated with VCE-003.2 (20 mg/Kg) alone or combined with T0070907 (5 mg/kg) as indicated. Animals were also treated separately with either VCE-003.2 or T0070907 alone. Hind limb clasping, general locomotor activity, hind limb dystonia and kyphosis were rated from 0 to 2 based on severity (score 0 indicates normal function and 2 indicates the most severe affected function). Values are expressed as means ± SEM (n = 6). (b) Representative images of Nissl staining performed on coronal striatal brain sections from the same mice groups. Photomicrographs of NeuN (Bar size, 50 μm) Iba-1 and glial fibrillary acidic protein (GFAP) immunostained sections through the different group of mice are also shown. (c) Quantification of the different markers was performed with Image J software. Total average number of neurons (NeuN^+), microglia (Iba1^+) and astrocytes (GFAP^+) is shown. Values are expressed as means ± SEM (n = 6). *p < 0.05, **p < 0.01, ***p < 0.001 vs. Vehicle; ^#p < 0.05, ^##p < 0.01, ^###p < 0.001 vs. 3NP; †p < 0.05, ^††p < 0.01, ^†††p < 0.001 vs. the 3NP + VCE-003.2 group.
Mice were housed under standard conditions (12-h light/dark cycle) in groups with access to food and water ad libitum. All experiments were performed in accordance with European Union guideline and approved by the Animal Research Ethic Committee of Córdoba University (2014PI/017) (3NP model) and by the Animal Research Ethic Committee of Complutense University (CEA-UCM 73/2012) (QA model). Procedures were designed to minimize the number of animals used and their suffering. Excitotoxicity was induced by intrastriatal quinolinic acid (QA) administration (100 nmol in 1 μL PBS solution, unilaterally) as previously described[41] at the following coordinates: +0.6 posterior to bregma, +1.85 medio-lateral and -2.7 dorso-ventral to dura, in 12-week-old CD1 male mice (Harlan Ibérica, Barcelona, Spain). Pharmacological manipulation with VCE-003.2 (10 mg/kg body weight) was performed i.p. daily in 2% Tween 20 and 3% DMSO in saline buffer until sacrifice. Control animals received the corresponding vehicle injections. Motor function was assessed by RotaRod analysis conducted with acceleration from 4 to 40 rpm over a period of 570 s in an LE8200 device (Harvard Apparatus, Barcelona, Spain). […] 3NP-treated animals and their respective non-lesioned controls (injected with PBS) were used for pharmacological studies with VCE-003.2. Treatments consisted of 4 i.p. injections every 24 h with 20 mg/kg VCE-003.2 or vehicle (4% DMSO plus 6,2% Tween 20 in saline buffer), with the first and the last injections 30 min before the first and the last injections of 3NP, respectively. In some experiments, mice received a combination of VCE-003.2 and the PPARγ antagonist T0070907 (5 mg/kg) injected 15 minutes before VCE-003.2. In 3NP-lesioned mice, motor activity, hindlimb clasping, dystonia, and truncal dystonia were evaluated following previously described procedures. All behavioural tests were conducted prior to drug injections to avoid acute effects of the compounds under investigation and all animals were euthanized 12 h after the last injection of 3NP and their brains removed. The right hemispheres were used to dissect the striatum which was frozen in RNAlater (Sigma-Aldrich) and stored at −80 °C for biochemical analyses. The left hemispheres were fixed in fresh 4% paraformaldehyde (in 0.1 M PBS) for 48 h at 4 °C and embedded in paraffin wax for staining and immunohistochemical analysis. In all experiments, at least 6 animals were used per experimental group.
Free floating coronal brain slices ([…]) were processed as previously described. […]

Keap1/Nrf2 pathway = Keap1/Nrf2 pathway activation (unpublished results)
3NP-lesioned mice = conditions: cited from earlier work
N2a cells [2] = experiment: N2a cytotoxicity assay (MTT); format: cell-based; conditions: 24 hours
Method: Figure 1 VCE-003.2 synthesis and characterization. (a) Schematic representation of VCE-003.2 synthesis. […] The indicated concentrations were tested and results were plotted to obtain the polynomial trend on a logarithmic range. IC50 values are indicated within the graph. […]. HEK293 cells were co-transfected with GAL4-PPARγ and GAL4-luc and incubated with the indicated compound concentrations for 6 hours prior to luciferase activity determination. Results are expressed as the fold induction ± S.D. relative to untreated control. (d) N2a cells were incubated with VCE-003 and VCE-003.2 as indicated during 24 hours and cell viability was determined by the MTT assay. Results are expressed as percentage of cell viability against the negative control (100%). (e) N2a cells were pre-treated with the compounds for 30 min and incubated during 24 h with 15 mM glutamate and cell viability determined by MTT. Results are expressed as percentage of cell viability against the negative control (100%). All experiments are shown as mean ± S.D. from at least three independent experiments. Statistics: *^,#,†p < 0.05, **^,##,††p < 0.01 and ***^,###p < 0.001. […] | Briefly, N2a cells were seeded at a density of 1 × 10^3 cells/well in 96-well plates, treated with increasing concentrations of VCE-003 or VCE-003.2 for 24 hours and cell viability was measured by the MTT method. […]. […]

[3] = Cysteamine recovery assay (thiol trapping)
Method: cysteamine to form polar and not extractable adducts.
(§1) Determination of ROS: N2a cells were seeded at 25x 10^3 cells/ml in 96-well plates and incubated with 0.25 ȝM 5-(and-6 )-chloro meth yl-2ƍ,7ƍ-dichlorodihydrofluorescein diacetate acet yl ester (C M-H 2 DCFDA) for 20 minutes at 37°C. Then, the cells were treated with either VCE-003 or VCE-003.2 for 2 hours. Cells exposed to pro-oxidant tert-Butyl h ydroperoxide (TBHP) were used as positive control. H 2 DCFDA oxidation was detected using an Incuc yteTM Live-Cell Imaging S ystem (Hertfordshire, UK).
(§2) Nrf2 transcriptional assay: To study Nrf2 transcriptional activity N2a cells were seeded (105/ml) in 24-well plates and transientl y transfected with the plasmid NQO1-ARE-Luc using Roti©-Fect following the manufacturer’s instructions (Carl Roth, Karlsruhe, German y). After 24 hours, cells were incubated wi th the compounds at the concentrations indicated during 6 hours and the luciferase activit y was determined using an Autolumat LB 953 (EG&G Berthold, Bad Wildbad, Germany). Protein content was determined b y the Bradford method to calculate R LU/Pg of protein and the results were expressed as a fold induction over untreated cells.

N2a cells [4] = experiment: Reactive oxygen species production in N2a cells (CM-H2DCFDA); format: cell-based; conditions: 2 hours
Method: as §1
Supplementary Figure S1. Non-elect rophilic activity for VCE-003.2. (a) Reactive ox ygen species production. N2a cells were stained with CM-H2DCFDA and treated with VCE-003 or VCE-003.2 for 2 hours. Then, reactive ox ygen sp ecies were measured b y In cu c yt e TM Liv e-Cell Im agin g S ystem. Results are ex pressed as m ean of t otal integrated intensity (ROS positive cells) ± S.D. (b) Effect on Nrf2 transcriptional activity.
VCE-003 treatment vers us Vehicle treated cells.

Nrf2 pathway = experiment: Nrf2 transcriptional assay (NQO1-ARE-Luc) in N2a cells; format: cell-based; conditions: 6 hours
Method: as §2
Supplementary Figure S1. Non-elect rophilic activity for VCE-003.2. (a) Reactive ox ygen species production.
In cu c yt e TM Liv e-Cell Im agin g S ystem. Results are ex pressed as m ean of t otal integrated intensity (ROS positive cells) ± S.D. (b) Effect on Nrf2 transcriptional activity. N2a cells were transientl y trans fected with the NQO1-ARE-Luc plasmid and incubated with the indicated compound concentrations for 6 hours prior to luciferase activit y determination.
Results are expressed as the fold induction ± S.D. relative to untreated control. All the results are representative of at least three independent experiments. Statistics: **p<0.01 VCE-003 treatment vers us Vehicle treated cells.

Compound | behavioural score, substance alone ([1]; mice given the substance alone) | COX-2 (2expΔΔct) [1] | IL-6 (2expΔΔct) [1] | TNF-α (2expΔΔct) [1] | % GSH [1] [%] | % SOD activity [1] | %Catalase activity [1] | further results
O=C(O)CC[N+](=O)[O-] [3NP, 3-nitropropionic acid, reference compound] | high scores in hindlimb clasping, locomotor activity, hindlimb dystonia and kyphosis | 4.69 ± 0.09^* 2expΔΔct | 4.28 ± 0.08^* 2expΔΔct | 5.19 ± 0.327^** 2expΔΔct | 67.16 ± 5.06 | 56.56 ± 1.05^** % | 58.85 ± 2.17^*** % | number of neurons in the striatum (Nissl, NeuN), substance alone ([1]; mice given the substance alone): reduced the number of neurons in the striatum
C=C(C)[C@@H]1CCC(C)=C[C@H]1C1=C(O)C(=O)C(CCCCC)=CC1=O [CBD-hydroxy-quinone] |  |  |  |  |  |  |  | activation of the Keap1/Nrf2 pathway (Keap1/Nrf2 pathway): activates the Keap1/Nrf2 pathway
CCCCCc1cc(O)c(C/C=C(\C)CCC=C(C)C)c(O)c1 [CBG, cannabigerol] |  |  |  |  |  |  |  | levels of GSH in the brain (3NP-lesioned mice): restores the levels of GSH in the brain of 3NP-lesioned mice
O=C(Nc1ccncc1)c1cc([N+](=O)[O-])ccc1Cl [T0070907, reference compound] | Neither VCE-003.2 nor T0070907 alone influenced the behavior of the animals | 1.45 ± 0.82 2expΔΔct | 1.57 ± 0.51 2expΔΔct | 1.54 ± 0.75 2expΔΔct | 115.82 ± 11.23 | 97.61 ± 27.44% | 92.18 ± 4.1% | 
CCCCCC1=CC(=O)C(C/C=C(\C)CCC=C(C)C)=C(O)C1=O [VCE-003, reference compound] |  |  |  |  |  |  |  | cell viability / cytotoxic activity (N2a cells [2]): clear cytotoxic activity at the highest concentrations tested; recovery after treatment with cysteamine (thiol-trapping reactivity) [3]: undetectable in the residue; induction of reactive oxygen species (ROS) (N2a cells [4]): induced reactive oxygen species (ROS); activation of the Nrf2 pathway (Nrf2 pathway): activated the Nrf2 pathway

Source: paper PMC4949444 (Scientific Reports, 2016)
